Data set [1] can be described thus: Animal test: prevention of obesity under high-fat diet. The format is in vivo, C57BL/6 mice. The conditions noted are these: for increase in body weight: 10 mg/kg/day orally over a 78-day period of high-fat diet (feed with 35 % fat), vehicle group 102 %; for increase in body weight relative to the vehicle group: 10 mg/kg/day orally, 78-day high-fat diet, fraction of vehicle group's increase. As for the experimental part:
Animal test was performed with mice in order to confirm the in vivo effect of HK101225. 14-weeks old C57BL/6 mice (SLC Co.) were used and a feed containing 35 % of fat was given to induce obesity. A vehicle, GW501516 (10 mg/kg/day) and HK101225 (10 mg/kg/day) were orally administered over a 78-day period of high-fat diet. […] Thus, it was confirmed that HK101225 has a strong prevention effect against obesity.

Data set [2] in a line: GTT (glucose tolerance test): improvement of diabetes. The settings on record: after 78-day oral administration; for change of blood sugar level with time: followed to 120 minutes. Type of data set: in vivo, mice. Here is the method:
GTT (glucose tolerance test) was performed in order to confirm the diabetic improvement effect of the compound of the present invention. A vehicle, GW501516 and HK101225 were orally administered to mice over a 78-day period. Then, glucose (1.5 g/kg) was abdominally administered and change of blood sugar level with time was checked.

The next data set deals with T1, PPARα (Homo sapiens, UniProt Q07869).
T1 construct: Full-length PPARs plasmid DNA, reporter DNA, which has luciferase activity; expressed in transfected cells; host or cells: CV-1 cells
T1 sequence (Q07869 1-468): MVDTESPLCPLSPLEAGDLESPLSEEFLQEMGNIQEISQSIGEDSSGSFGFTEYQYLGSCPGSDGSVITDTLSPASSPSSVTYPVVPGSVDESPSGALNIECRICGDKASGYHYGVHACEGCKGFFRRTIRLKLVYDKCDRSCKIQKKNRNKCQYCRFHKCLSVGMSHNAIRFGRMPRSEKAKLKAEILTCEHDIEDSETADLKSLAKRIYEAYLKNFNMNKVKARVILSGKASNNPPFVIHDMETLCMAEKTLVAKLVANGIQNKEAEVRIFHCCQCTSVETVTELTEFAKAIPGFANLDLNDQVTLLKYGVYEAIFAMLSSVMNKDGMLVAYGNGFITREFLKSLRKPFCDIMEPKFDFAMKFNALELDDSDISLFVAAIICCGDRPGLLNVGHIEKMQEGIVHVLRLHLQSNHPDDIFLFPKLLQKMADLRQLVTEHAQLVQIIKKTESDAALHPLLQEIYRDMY
The data set can be described thus: Transfection assay (luciferase reporter, full-length PPARs plasmid DNA) in CV-1 cells. The format is cell-based. The settings on record: 24 hours treatment, luciferase calibrated with β-galactosidase. As for the experimental part:
(§1) Transfection assay was performed using CV-1 cells. The cells were cultured with a DMEM medium containing 10 % FBS, DBS (delipidated) and 1 % penicillin/streptomycin in 37 °C of a transfection assay culture system containing 5 % of carbon dioxide on a 96-well plate. Test was performed in four stages - cell inoculation, transfection, treatment with the compound of the present invention and confirmation. The CV-1 cells were inoculated on the 96-well plate, 5,000 cells/well. Transfection was performed 24 hours later. Full-length PPARs plasmid DNA, reporter DNA, which has luciferase activity and thus enables confirmation of the activity for PPARs, and β-galactosidase DNA, which offers effective information on the transfection, were used. HK101225 prepared in Example 4 was dissolved in dimethylsulfoxide (DMSO) and treated to the cells at various concentrations. After 24 hours of culturing in an incubator, the cells were lysed with a lysis buffer and luciferase activity and β-galactosidase activity were measured using a luminometer and a microplate reader. The measured luciferase activity was calibrated with the β-galactosidase activity. The result was depicted on a graph and EC50 was determined.

For a further data set, the target named is T2, PPARγ (Homo sapiens, UniProt P37231).
T2 construct: Full-length PPARs plasmid DNA, reporter DNA, which has luciferase activity; expressed in transfected cells; host or cells: CV-1 cells
T2 sequence (P37231 1-505): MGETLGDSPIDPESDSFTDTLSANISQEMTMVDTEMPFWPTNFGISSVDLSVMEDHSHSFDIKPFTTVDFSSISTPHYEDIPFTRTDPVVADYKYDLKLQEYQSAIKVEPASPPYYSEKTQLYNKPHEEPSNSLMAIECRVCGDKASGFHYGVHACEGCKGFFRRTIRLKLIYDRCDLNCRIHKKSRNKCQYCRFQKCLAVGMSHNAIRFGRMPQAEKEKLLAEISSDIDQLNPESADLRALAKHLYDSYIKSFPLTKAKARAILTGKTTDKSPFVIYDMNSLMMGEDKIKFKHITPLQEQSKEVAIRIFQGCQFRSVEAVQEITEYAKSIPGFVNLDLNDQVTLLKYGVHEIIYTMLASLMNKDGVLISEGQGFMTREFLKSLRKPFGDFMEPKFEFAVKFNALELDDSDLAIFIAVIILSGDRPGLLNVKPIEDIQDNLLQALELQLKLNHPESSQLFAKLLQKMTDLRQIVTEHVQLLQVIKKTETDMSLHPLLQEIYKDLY
The description is as above. The format is cell-based. The settings on record: 24 hours treatment, luciferase calibrated with β-galactosidase. Here is the method:
as §1

A further data set has as its target T3, PPARδ (Homo sapiens, UniProt Q03181).
T3 construct: Full-length PPARs plasmid DNA, reporter DNA, which has luciferase activity; expressed in transfected cells; host or cells: CV-1 cells
T3 sequence (Q03181 1-441): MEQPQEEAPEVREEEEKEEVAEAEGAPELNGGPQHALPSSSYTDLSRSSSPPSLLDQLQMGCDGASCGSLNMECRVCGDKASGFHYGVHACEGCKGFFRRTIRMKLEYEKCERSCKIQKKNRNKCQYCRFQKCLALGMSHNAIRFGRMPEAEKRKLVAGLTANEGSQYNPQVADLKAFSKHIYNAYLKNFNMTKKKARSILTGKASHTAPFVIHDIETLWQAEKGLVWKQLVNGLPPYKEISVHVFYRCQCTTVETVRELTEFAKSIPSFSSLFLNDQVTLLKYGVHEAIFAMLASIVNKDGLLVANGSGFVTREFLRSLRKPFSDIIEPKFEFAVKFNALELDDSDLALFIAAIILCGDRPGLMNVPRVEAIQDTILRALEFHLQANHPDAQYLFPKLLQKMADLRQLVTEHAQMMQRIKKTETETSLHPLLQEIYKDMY
The data set is described as above. The conditions noted are these: 24 hours treatment, luciferase calibrated with β-galactosidase. Type of data set: cell-based. As for the experimental part: as §1

Another data set relates to CV-1 cells. The data set can be described thus: MTT assay (cell toxicity). Type of data set: cell-based. The conditions noted are these: 24 hours, at the concentration of 50,000 times of the EC50 (1.87 nM) value. Here is the method: Toxicity was tested by MTT assay for HK101225 prepared in Example 4. MTT is a water-soluble, yellow substance. However, when introduced in a living cell, it is transformed into a water-insoluble, purple crystal by the mitochondrial dehydrogenase. Cell toxicity can be tested by dissolving this substance in dimethylsulfoxide and measuring light absorbance at 550 nm. The test was performed as follows.
CV-1 cells were inoculated on a 96-well plate, 5,000 cells/well. After culturing for 24 hours in a humidified culture system of 37 °C containing 5 % of carbon dioxide, the cells were treated with HK101225 at various concentrations. MTT reagent was added after 24 hours of culturing. After culturing for about 15 minutes, the purple crystal was dissolved in dimethylsulfoxide and absorbance was measured with a microplate reader to confirm cell toxicity.

Where only a bound is given, the exact number is not on record here.

We go through 2 compounds from patent publication EP1841748B1, “ORGANOSELENIUM CONTAINING COMPOUNDS AND THEIR USE” (Seoul National University Industry Foundation, priority 2004, dated 2006).

`Cc1cc(SCc2sc(-c3ccc(C(F)(F)F)cc3)nc2C)ccc1OCC(=O)O` [GW501516, [2-methyl-4-[[[4-methyl-2-[4-(trifluoromethyl)phenyl]-1,3-thiazol-5-yl]methyl]sulfanyl]phenoxy]acetic acid, reference compound]: in data set [1], the “increase in body weight” value is on record as 21% and the “increase in body weight relative to the vehicle group” value is reported as “about 1/5”. The “change of blood sugar level with time” value in data set [2] (glucose 1.5 g/kg abdominally) is “blood sugar level lower than that of the vehicle group, but did not restore to the normal level”.

As for `Cc1cc([Se]Cc2sc(-c3ccc(C(F)(F)F)cc3)nc2C)ccc1OCC(=O)O` [HK101225, 2-[4-[[2-[4-(trifluoromethyl)phenyl]-4-methylthiazol-5-yl]methylselanyl]-2-methylphenoxy]acetic acid], the EC50 at PPARα is more than 10 µM; at PPARγ, more than 10 µM; on PPARδ, 0.00187 µM. Further, in the data set on CV-1 cells, the toxicity result is on record as “no toxicity”. The “increase in body weight” value in data set [1] was found to be 21%. In addition, the “increase in body weight relative to the vehicle group” value in data set [1] is “about 1/5”. Besides, in data set [2] (compared with vehicle and GW501516 groups), the “fasting blood sugar level” value was “lower fasting blood sugar level than the groups to which the vehicle and GW501516 were administered”. Besides, the “time to complete glucose clearance” value in data set [2] (glucose 1.5 g/kg abdominally) came to 100 min. The “change of blood sugar level with time” value in data set [2] (glucose 1.5 g/kg abdominally) was “rapid decrease of blood sugar level between 20 and 40 minutes”.
